In US20040072750A1, “Compounds and methods for the modulation of CD154” (priority 2001, published 2004):

What was measured:
Format in all cases: cell-based, human
[1] = system: washed platelets; assay: sCD40L release from TRAP activated, not aggregated washed platelets (ELISA); conditions: for release of sCD40L from TRAP activated, but not aggregated, platelets: 50 μM, FIG. 3; for release of sCD154 from TRAP-stimulated platelets: 5-50 μM inhibitor, 5 μM TRAP, no rocking
Description: (§1) Washed platelets were prepared from blood drawn into ⅙^th volume of ACD containing (85 mM sodium citrate, 111 mM dextrose and 71 mM citric acid) with 0.05 μg/ml PGI2. Collected blood was centrifuged at 160×g for 20 minutes at room temperature (Beckman GP) and the PRP layer was collected. PRP was then centrifuged at 1100×g for 10 minutes to sediment platelets. Platelets were washed twice by repeat suspending and pelleting in CGS (13 mM trisodium citrate, 120 mM NaCl, 30 mM Dextrose, pH 7.0) containing 0.05 μg/ml PGI2 for the first wash. The final suspension of platelets (5×10^8/ml) was in Tyrode's Hepes.
The release of sCD40L from the activated platelets was determined as follows: 500 μL of washed platelets were gently mixed 5 μM of TRAP and incubated at 37° C. without rocking for 30 min. Under this condition, platelets were activated but not aggregated. 5-50 μM of metalloproteinase inhibitors GM6001 (Galardin, Calbiochem) or TAPI-1 (Peptides International) were added to the washed platelets before the addition of TRAP. Platelets were removed from suspension by centrifugation for 10 minutes at 15,000×g, 4° C. and the resulting supernatants were collected. The levels of sCD154 were measured by ELISA.

[2] = system: washed platelets; assay: Cleavage of CD40L into sCD40L in platelet lysates (immunoblotting); conditions: TRAP 5 μM; activated or aggregated platelets; FIG. 4
Description: as §1, with “Collected” for “Washed platelets were prepared from blood drawn into ⅙^th volume of ACD containing (85 mM sodium citrate, 111 mM dextrose and 71 mM citric acid) with 0.05 μg/ml PGI2. Collected”
Cleavage of the full length CD40L (32 kD) yields the 18 kD soluble from (sCD40L). 500 μl of Washed platelets were gently mixed with TRAP (5 μM) to initiate the platelet activation. Metalloproteinase inhibitors GM6001 (50 μM, Calbiochem) or DMSO were added to washed platelets, and incubated at 37° C. with or without rocking for 30 minutes. […] Platelets were removed from suspension by centrifugation for 10 minutes at 15,000×g, 4° C. and the resulting platelet pellets were dissolved in the loading buffer. The proteins in the platelet lysates were resolved with SDS-PAGE, transferred onto nitrocellulose membrane, and blotted with anti-CD40L antibody (MK13A4, Alexis).

[3] = system: washed platelets; assay: TRAP6-induced aggregation of washed platelets (aggregometer); conditions: 1 μM TRAP6; 0.1-1.0 μg/ml TIMP-2 or 5-50 μM TAPI-1
Description: as §1, with “⅙ th” for “⅙^th”, “resuspending” for “repeat suspending and pelleting”, “(3×10^8/ml)” for “(5×10^8/ml)”
a. For platelet aggregation studies, 500 μL of washed platelets were allowed to stir in a Chrono-Log Aggregometer before the addition of 1 μM TRAP6 to initiate aggregation. Subsequent samples included various metalloproteinase inhibitors added to washed platelets before the addition of TRAP6; 0.1-1.0 μg/ml TIMP-2 (Calbiochem) or 5-50 μM TAPI-1 (Peptides International). Aggregation proceeded for 5 minutes and the amplitude of each aggregometer tracing was calculated by Aggro-Link software.

[4] = system: washed platelets; assay: sCD154 release from TRAP6-stimulated washed platelets with rocking (ELISA); conditions: rocking 30 minutes, 37° C.
Description: as §1, with “⅙ th” for “⅙^th”, “resuspending” for “repeat suspending and pelleting”, “(3×10^8/ml)” for “(5×10^8/ml)”
b. CD154 determinations were made as follows: Washed platelets were incubated at 37° C. with various concentrations of TIMP-2 and TAPI-1 (see above) while rocking on a Nutator for 30 minutes. Platelets or platelet aggregates were removed from suspension by centrifugation for 10 minutes at 15,000×g, 4° C. and the resulting supernatants were collected. The levels of sCD154 were measured by ELISA.

CNC(=O)[C@H](Cc1c[nH]c2ccccc12)NC(=O)[C@@H](CC(=O)NO)CC(C)C [GM6001, N-[(2R)-2-(Hydroxamidocarbonylmethyl)-4-methylpentanoyl]-L-tryptophan methylamide]
inhibited: release of sCD40L from TRAP activated, but not aggregated, platelets [1] | release of sCD154 from TRAP-stimulated platelets [1] | cleavage of the full length CD40L to the 18 kD soluble form [2]

CC(C)C[C@H](CC(=O)NO)C(=O)N[C@@H](Cc1ccc2ccccc2c1)C(=O)N[C@@H](C)C(=O)NCCN [TAPI-1, HONHCOCH2CH(CH2CH(CH3)2-CO-NaI-Ala-NHCH2CH2NH2]
inhibited: release of sCD40L from TRAP activated, but not aggregated, platelets [1] | release of sCD154 from TRAP-stimulated platelets [1] | platelet aggregation induced by sub-optimal concentrations of TRAP6 [3] | release of sCD154 from TRAP6-stimulated platelets [4]
